Series [1] deals with recombinant human MEK 1 (MAPKK) and recombinant human ERK2 (MAPK). The series can be described thus: Mitogen Activated Protein Kinase (MAPK) assay, two component coupled MEK 1 / ERK2.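 Further: MEK 1-activated ERK2 phosphorylates MBP or Myc peptide with 33P-ATP, filter capture and scintillation counting, inhibitor preincubated with ERK2 30 min at 0 °C, inhibition relative to uninhibited control.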 It is filed as biochemical. To be noted: separate entries for the same compound = evaluated more than one time.
Procedure: To evaluate inhibitors of the MAP (mitogen activated protein) kinase a two component coupled standard pharmacological test procedure, which measures phosphorylation of a serine/threonine residue in an appropriate sequence in the substrate in the presence and absence of a putative inhibitor, was used. Recombinant human MEK 1 (MAPKK) was first used to activate recombinant human ERK2 (MAPK) and the activated MAPK (ERK) was incubated with substrate (MBP peptide or MYC peptide) in the presence of ATP, Mg^+2 and radiolabeled ^33P ATP. The phosphorylated peptide was captured on a P 81 phosphocellulose filter (paper filter or embedded in microtiter plate) washed and counted by scintillation methods.
The peptide substrates used in the assay are MBP, peptide substrate ([sequence]), or synthetic Myc substrate, ([sequence]•5 TFA. The recombinant enzymes used were prepared as GST fusion proteins of human ERK 2 and human MEK 1. Inhibitor samples were prepared as 10X stocks in 10% DMSO and an appropriate aliquot was used to deliver either 10 ug/ml for a single point screening dose or 100, 10, 1, and 0.1 uM final concentration for a dose response curve. Final DMSO concentrations were less than or equal to 1%.
The reaction was run as follows in 50 mM Tris kinase buffer, pH 7.4 in a reaction volume of 50 ul. The appropriate volume of kinase buffer and inhibitor sample was added to the tube. Appropriate dilution of enzyme was delivered to give 2-5 ug recombinant MAPK (Erk ) per tube. The inhibitor was incubated with MAPK (Erk) for 30 min at 0 deg. […] Recombinant Mek (MAPKK) ( 0.5-2.5 ug) or fully activated Mek (0.05-0.1 units) was added to activate the Erk and incubated for 30 min at 30° C. […] Samples were incubated at 30°C for 30 minutes and the reaction was stopped by adding 25 µl of ice cold 10 %TCA .After samples were chilled on ice for 30 min, 20 µl of sample was transferred onto P 81 phosphocellulose filter paper or appropriate MTP with embedded P 81 filter. Filter papers or MTP were washed 2 times with a large volume of 1% acetic acid, then 2 times with water. The filters or MTP were briefly air dried before addition of scintillant and samples were counted in the appropriate scintillation counter set up for reading ^33P isotope.
The raw data was captured as cpm. Sample replicates were averaged and corrected for background count. Mean cpm data was tabulated by group and % inhibition by a test compound was calculated as (corrected cpm control- corrected. cpm sample/control) X 100 = % inhibition.
The test system of series [2] is SKBR3. The series can be described thus: Inhibition of cancer cell growth as measured by cell number, SKBR3.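 On all read-outs here: SK-BR-3 cells were selected as a line overexpressing HER2/neu.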 The conditions noted are these: Table 8; for IC50: Homo sapiens. It counts as cell-based, human.
Source text: (§1) The cell lines were chosen since they overexpressed epidermal growth factor receptor (EGFR) (i.e. A431) or HER2/neu (SKBR3), or had little to no expression of the these receptors (SW620, LOX, MCF7).
For series [3], the system named is SW620. Description: Inhibition of cancer cell growth as measured by cell number, SW620.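 On all read-outs here: SW620 was included as a cell line with little or no EGFR or HER2/neu expression, in contrast to receptor-overexpressing lines.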 To be noted: Table 8; for IC50: Homo sapiens, SW-620, 48 h. It counts as cell-based, human.
Source text: as §1
Series [4] relates to A431. Description: Inhibition of cancer cell growth as measured by cell number, A431.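 Further: human A431 line, picked because it overexpresses epidermal growth factor receptor (EGFR).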 It counts as cell-based, human. The conditions noted are these: Homo sapiens, A-431, 48 h, Table 8.
Source text: as §1
Series [5] has as its target T1, His-tagged cytoplasmic domain of EGFR (Homo sapiens, UniProt P00533).
T1 construct: containing the EGFR cDNA encoding amino acids 645 - 1186 preceded by Met-Ala-(His)6; made in house; host or cells: Sf9 cells, recombinant baculovirus vHcEGFR52
The series can be described thus: Inhibition of Epidermal Growth Factor Receptor Kinase (EGF-R) using recombinant enzyme.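 Further: radiometric kinase assay measuring radiolabeled phosphate transfer from ATP onto the peptide tyrosine by scintillation counting, control is reaction without compound, background subtracted, IC50 from dose-response curve.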 It is filed as biochemical. The conditions noted are these: recombinant enzyme; RR-SRC peptide; average of the number of tests; read-out: IC50.

The subject of series [6] is human epidermoid tumors (A431). Description: In vivo inhibition of the growth of human epidermoid tumors (A431). The conditions noted are these: Table 11; for S/T = No. Survivors/No. Treated: Day +28 post tumor staging. Here is the method: Representative compounds of this invention (listed below) were evaluated in an in vivo standard pharmacological test procedure which measured its ability to inhibit the growth of human epidermoid tumors. […] BALB/c nu/nu female mice (Charles River, Wilmington, MA) were used in this in vivo standard pharmacological test procedure. A unit of 5 X 10^6 cells were injected SC into mice. When tumors attained a mass of between 100 and 150 mg, the mice were randomized into treatment groups (day zero). […] Control animals received no drug. Tumor mass was determined every 7 days [(length X width^2)/2] for 28 days post staging. Relative tumor growth (Mean tumor mass on days 7, 14, 21, and 28 divided by the mean tumor mass on day zero) is determined for each treatment group.

Setting [7] is: SK-BR-3, cell number, Sulforhodamine B, 48 hours exposure, read-out: IC50 SKBR3.
Setting [8] is: cell number, Sulforhodamine B, 48 hours exposure, read-out: IC50 SW620.
[9] abbreviates: cell number, Sulforhodamine B, 48 hours exposure, read-out: IC50 A431.
Setting [10] is: cell number, Sulforhodamine B, 48 hours exposure.
The mark [11] stands for this setting: SK-BR-3, 48 h, read-out: IC50 SKBR3, cell number, Sulforhodamine B, 48 hours exposure.
The mark [12] stands for this setting: read-out: IC50 SW620, cell number, Sulforhodamine B, 48 hours exposure.
Setting [13] is: 80 mg/kg/dose IP on days 1,5 and 9.
The mark [14] stands for this setting: 80 mg/kg/dose PO on days 1 through 10.

Values after ≈ are worked out from the molar mass of the structure shown. Values joined by “and” are separate entries in the source; they are usually repeats but may differ in a detail not shown here. Identical values can stand only once. Like-named read-outs stand apart in the source and are kept apart here.

T1 sequence (P00533 669-1210): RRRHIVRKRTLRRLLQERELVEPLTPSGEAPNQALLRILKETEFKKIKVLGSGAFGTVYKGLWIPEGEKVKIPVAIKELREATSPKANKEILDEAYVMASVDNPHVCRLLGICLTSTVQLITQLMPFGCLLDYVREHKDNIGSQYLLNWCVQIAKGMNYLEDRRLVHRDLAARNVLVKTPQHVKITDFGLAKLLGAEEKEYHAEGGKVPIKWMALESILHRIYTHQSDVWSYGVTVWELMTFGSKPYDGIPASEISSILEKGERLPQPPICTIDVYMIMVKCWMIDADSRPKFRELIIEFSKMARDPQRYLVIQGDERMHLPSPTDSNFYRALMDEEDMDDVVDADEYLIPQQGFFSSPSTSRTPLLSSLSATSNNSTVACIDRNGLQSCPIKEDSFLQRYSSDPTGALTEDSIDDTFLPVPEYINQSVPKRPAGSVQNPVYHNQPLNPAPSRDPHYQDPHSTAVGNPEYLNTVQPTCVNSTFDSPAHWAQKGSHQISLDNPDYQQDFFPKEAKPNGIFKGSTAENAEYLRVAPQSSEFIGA

For orientation: IC50 means the point on the concentration scale where inhibition reaches its midpoint. Regarding `CCOc1cc2ncc(C#N)c(NCc3cccc(Br)c3)c2cc1OCC` [Example 61, 4-(3-Bromophenylmethylamino)-6,7-diethoxy-3-quinolinecarbonitrile], the IC50 is greater than 100 µM in series [1], 1.09 µg/mL (≈ 2.57 µM) in series [2] (setting [7]), 1.07 µg/mL (≈ 2.5 µM) in series [3] (setting [8]) and 0.341 µg/mL (≈ 0.8 µM) in series [4] (setting [9]).

As to `CCOc1cc2ncc(C#N)c(NCc3ccccc3)c2cc1OCC` [Example 62, 4-(3-Phenylmethylamino)-6,7-diethoxy-3-quinolinecarbonitrile], in series [2] (setting [10]), the “IC50 SKBR3” value is 0.3 µg/mL (≈ 0.864 µM). Also, the “IC50 SW620” value in series [3] (setting [10]) was found to be 0.3 µg/mL (≈ 0.864 µM).

For `CCOc1cc2ncc(C#N)c(NCc3ccc(Cl)c(Cl)c3)c2cc1OCC` [Example 64, 4-(3.4-Dichlorophenylmethylamino)-6,7-diethoxy-3-quinolinecarbonitrile], the IC50 in series [1] was determined as 3 µM. Besides, the “IC50 SKBR3” value in series [2] (setting [10]) was 1.965 µg/mL (≈ 4.72 µM). The “IC50 SW620” value in series [3] (setting [10]) is 1.603 µg/mL (≈ 3.85 µM).

`C=CC(=O)Nc1ccc2ncc(C#N)c(Nc3cccc(F)c3)c2c1` [Example 88, N-[3-Cyano-4-(3-fluorophenylamino)quinolin-6-yl]acrylamide]: the IC50 in series [5] came out at 0.08 µM.

`C=CC(=O)Nc1cc(CN(C)C)c2ncc(C#N)c(Nc3cccc(Br)c3)c2c1` [Example 111, N-{4-[(3-Bromophenyl)amino]-3-cyano-8-dimethylaminomethyl-6-quinolinyl}-2-propenamide]: the IC50 in series [2] (setting [7]) came out at 3.32 µg/mL (≈ 7.38 µM); in series [3] (setting [8]) it was 2.02 µg/mL (≈ 4.48 µM); in series [4] (setting [9]), 3.05 µg/mL (≈ 6.76 µM).

With `CC(=O)Nc1cc(CN(C)C)c2ncc(C#N)c(Nc3cccc(Br)c3)c2c1` [Example 112, N-{4-[(3-Bromophenyl)amino]-3-cyano-8-dimethylaminomethyl-6-quinolinyl} acetamide], the half-inhibitory concentration (IC50) was greater than 100 µM in series [1]; greater than 5 µg/mL in series [2] (setting [11]); greater than 5 µg/mL in series [3] (setting [12]); greater than 5 µg/mL in series [4] (read-out: IC50 A431, cell number, Sulforhodamine B, 48 hours exposure).

In the case of `C=CC(=O)Nc1ccc2ncc(C#N)c(Nc3cccc(Cl)c3)c2c1` [Example 135, N-4-[(3-Chlorophenyl)amino]-3-cyano-6-guinolinyl-2-propenarnide], in series [5], the half-inhibitory concentration (IC50) was found to be 0.01 µM.

On to `C=C(CN1CCOCC1)C(=O)Nc1ccc2ncc(C#N)c(Nc3ccc(F)c(Cl)c3)c2c1` [Example 148, N-{4-[(3-chloro-4-fluorophenyl)amino]-3-cyano-6-quinolinyl}-2-morpholin-4-ylmethyl-2-propenamide], for which the values for the half-inhibitory concentration (IC50) in series [2] (setting [11]) and in series [3] (setting [12]) were 0.043 µg/mL (≈ 0.0923 µM) and 0.26 µg/mL (≈ 0.558 µM), respectively.

For `N#Cc1cnc2ccc(N)cc2c1Nc1ccc(Br)cc1` [Example 152, 6-Amino-4-[(4-bromophenyl)amino]-3-quinolinecarbonitrile], in series [5], the IC50 was found to be 0.1 µM.

For `C=C(CN1CCOCC1)C(=O)Nc1ccc2ncc(C#N)c(Nc3cccc(Br)c3)c2c1` [Example 171, N-{4-[(3-Bromophenyl)amino]-3-cyano-6-quinolinyl}-2-morpholin-4-ylmethyl-2-propenamide], in series [5], the IC50 worked out at 0.0065 µM.

With `CCOc1cc2ncc(C#N)c(Nc3cccc(Br)c3)c2cc1NC(=O)C=CCN(C)C` [Example 216, 4-Dimethylamino-but-2-enoic acid [4-(3-bromo-phenylamino)-3-cyano-7-ethoxy-quinolin-6-yl]-amide], in series [2] (setting [11]), the IC50 was found to be 0.012 µg/mL (≈ 0.0243 µM). Moreover, the “IC50 SKBR3” value in series [2] (setting [10]) stood at 0.015 µg/mL (≈ 0.0303 µM). In addition, in series [6] (setting [13]), the “%T/C Day 7” value is on record as 14%, the “%T/C Day 14” value turned out to be 12%, the “%T/C Day 21” value amounted to 17% and the “%T/C Day 28” value came out at 19%. Further, the “S/T = No. Survivors/No. Treated” value in series [6] (setting [13]) is given as 5/5. Further, in series [6] (setting [14]), the “%T/C Day 7” value is given as 6%, the “%T/C Day 14” value is recorded as 6%, the “%T/C Day 21” value is listed as 12% and the “%T/C Day 28” value worked out at 21%. For the same compound, in series [6] (setting [14]), the “S/T = No. Survivors/No. Treated” value is 5/5.

With `COc1cc(NC(=O)C=CCN(C)C)cc2c(Nc3cccc(Br)c3)c(C#N)cnc12` [Example 224], the IC50 in series [5] came to 1 µM.

With `CCOc1cc2ncc(C#N)c(Nc3ccc(F)c(Cl)c3)c2cc1OCC` [Example 256, 4-(3-Chloro-4-fluorophenylamino)-6,7-diethoxy-3-quinolinecarbonitrile], the IC50 in series [5] is 0.1 µM.

Regarding `CSc1cccc(Nc2c(C#N)cnc3ccc([N+](=O)[O-])cc23)c1` [Example 364, 4-[(3-Methylsulfanylphenyl)amino]-6-nitro-3-quinolinecarbonitrile], the IC50 in series [1] is greater than 100 µM.

On to `N#Cc1cnc2ccc([N+](=O)[O-])cc2c1Nc1cccc(OC(F)(F)F)c1` [Example 365, 4-[(3-Trifluoromethoxyphenyl)amino]-6-nitro-3-quinolinecarbonitrile], for which the IC50 in series [1] was greater than 100 µM.

As to `COc1cc2ncc(C#N)c(Nc3cccc(N(C)C)c3)c2cc1OC` [Example 366, 4-(3-Dimethylamino-phenylamino)-6,7-dimethoxy-quinoline-3-carbonitrile], the half-inhibitory concentration (IC50) in series [1] is 4 µM.

In the case of `COc1cc2ncc(C#N)c(Nc3cccc(O)c3C)c2cc1OC` [Example 374, 4-(3-Hydroxy-2-methyl-phenylamino)-6,7-dimethoxy-quinoline-3-carbonitrile], in series [1], the half-inhibitory concentration (IC50) was < 1 µM and 2 µM.

On to `N#Cc1cnc2ccc([N+](=O)[O-])cc2c1Nc1ccc(Br)c(Br)c1` [Example 377, 4-(3,4-Dibromophenylamino)-6-nitroquinoline-3-carbonitrile], for which the 50% inhibitory concentration (IC50) in series [1] was greater than 100 µM.

Take `N#Cc1cnc2ccc(N)cc2c1Nc1ccc(Br)c(Br)c1` [Example 379, 6-Amino-4-(3,4-dibromophenylamino)quinoline-3-carbonitrile]: the IC50 in series [1] was 40 µM.

With `CCC(=O)Nc1ccc2ncc(C#N)c(Nc3cccc(Br)c3)c2c1` [Example 381, N-[4-(3-Bromophenylamino)-3-cyanoquinolin-6-yl]propionamide], the IC50 in series [1] was greater than 100 µM.

With `C/C=C/C(=O)Nc1ccc2ncc(C#N)c(Nc3cccc(Br)c3)c2c1` [Example 382, (E)-But-2-enoic Acid [4-(3-Bromophenylamino)-3-cyanoquinolin-6-yl]amide], in series [1], the IC50 was greater than 100 µM.

For `N#Cc1cnc2ccc([N+](=O)[O-])cc2c1Nc1cccc(F)c1` [Example 384, 4-(3-Fluorophenylamino)-6-nitroquinoline-3-carbonitrile], in series [1], the half-inhibitory concentration (IC50) is greater than 100 µM.

For `N#Cc1cnc2ccc(N)cc2c1Nc1cccc(F)c1` [Example 385, 6-Amino-4-(3-fluorophenylamino)quinoline-3-carbonitrile], in series [1], the IC50 came out at 90 µM.

Take `CN(C)c1cccc(Nc2c(C#N)cnc3ccc([N+](=O)[O-])cc23)c1` [Example 386, 4-(3-Dimethylaminophenylamino)-6-nitroquinoline-3-carbonitrile]: the IC50 in series [1] is greater than 100 µM.

Consider `CN(C)c1ccc(Nc2c(C#N)cnc3ccc([N+](=O)[O-])cc23)cc1` [Example 387, 4-(4-Dimethylaminophenylamino)-6-nitroquinoline-3-carbonitrile], for which the 50% inhibitory concentration (IC50) in series [1] was greater than 100 µM.

Take `CN(C)c1cccc(Nc2c(C#N)cnc3ccc(N)cc23)c1` [Example 388, 6-Amino-4-(3-dimethylaminophenylamino)quinoline-3-carbonitrile]: the concentration for half-maximal inhibition (IC50) in series [1] is 25 µM and 50 µM.

Turning to `CN(C)c1ccc(Nc2c(C#N)cnc3ccc(N)cc23)cc1` [Example 389, 6-Amino-4-(4-dimethylaminophenylamino)quinoline-3-carbonitrile], the IC50 in series [1] was greater than 100 µM.

As for `CC#CC(=O)Nc1ccc2ncc(C#N)c(Nc3cccc(F)c3)c2c1` [Example 390, But-2-ynoic Acid [4-(3-Fluorophenylamino)-3-cyanoquinolin-6-yl]amide], the half-inhibitory concentration (IC50) in series [1] was greater than 100 µM.

For the compound `CC#CC(=O)Nc1ccc2ncc(C#N)c(Nc3ccc(N(C)C)cc3)c2c1` [Example 394, But-2-ynoic Acid [3-Cyano-4-(4-dimethylaminophenylamino)quinolin-6-yl]amide], the IC50 in series [1] was greater than 100 µM.

For the compound `COc1cccc(Nc2c(C#N)cnc3ccc(N(C)C)cc23)c1.Cl` [Example 396, 6-Dimethylamino-4-(3-methoxyphenylamino)quinoline-3-carbonitrile Hydrochloride], the half-maximal inhibitory concentration (IC50) in series [1] turned out to be 50 µM; in series [2] (setting [7]), 0.2 µg/mL; in series [3] (setting [8]), 2.7 µg/mL; in series [4] (setting [9]), 0.3 µg/mL.
